Experiments:
Assay type in all cases: in vivo
Lolium rigidum [1] = assay: Pre-emergence herbicidal activity against LOLRI; details: Lolium rigidum, 504 h, dosage 80 g/ha, scored visually after about 3 weeks vs untreated controls
In short: (§1)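 Visual percent rating against untreated controls after roughly 3 weeks in the greenhouse, 0% meaning control-like and 100% dead plants. Treatment was pre-emergence: WP or EC formulations sprayed onto covering soil at 600 l/ha water volume with 0.5% additive.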

Stellaria media [2] = assay: Post-emergence herbicidal activity against STEME; details: Stellaria media, 504 h, dosage 320 g/ha, rated visually after about 3 weeks
In short: (§2)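 Post-emergence foliar spray of wettable-powder or emulsion-concentrate formulations (0.5% additive, 600 l/ha water) onto one-leaf-stage greenhouse plants. Percent activity scored by eye after ~3 weeks against untreated plants; 0% equals control growth, 100% equals plant death.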

Setaria viridis [3] = assay: Pre-emergence herbicidal activity against SETVI; details: Setaria viridis, 504 h, dosage 80 g/ha, scored visually after about 3 weeks vs untreated controls
In short: as §1

Veronica persica [4] = assay: Pre-emergence herbicidal activity against VERPE; details: Veronica persica, 504 h, dosage 80 g/ha
In short: as §1

Viola tricolor [5] = assay: Pre-emergence herbicidal activity against VIOTR; details: Viola tricolor, 504 h, dosage 80 g/ha, scored visually after about 3 weeks vs untreated controls
In short: as §1

Avena fatua [6] = assay: Post-emergence herbicidal activity against AVEFA; details: Avena fatua, 504 h, dosage 320 g/ha, rated visually after about 3 weeks
In short: as §2

Echinochloa crus-galli [7] = assay: Post-emergence herbicidal activity against ECHCG; details: Echinochloa crus-galli, 504 h, dosage 320 g/ha, rated visually after about 3 weeks
In short: as §2

Amaranthus retroflexus [8] = assay: Post-emergence herbicidal activity against AMARE; details: Amaranthus retroflexus, 504 h, dosage 320 g/ha, rated visually after about 3 weeks
In short: as §2

Veronica persica [9] = assay: Post-emergence herbicidal activity against VERPE; details: Veronica persica, 504 h, dosage 320 g/ha, rated visually after about 3 weeks
In short: as §2

Hordeum murinum [10] = assay: Pre-emergence herbicidal activity against HORMU; details: Hordeum murinum, 504 h, dosage 80 g/ha
In short: as §1

Polygonum convolvulus [11] = assay: Post-emergence herbicidal activity against POLCO; details: Fallopia convolvulus, 504 h, dosage 320 g/ha, rated visually after about 3 weeks
In short: as §2

Echinochloa crus-galli [12] = assay: Pre-emergence herbicidal activity against ECHCG; details: Echinochloa crus-galli, 504 h, dosage 80 g/ha, scored visually after about 3 weeks vs untreated controls
In short: as §1

Lolium rigidum [13] = assay: Post-emergence herbicidal activity against LOLRI; details: Lolium rigidum, 504 h, dosage 320 g/ha, rated visually after about 3 weeks
In short: as §2

Polygonum convolvulus [14] = assay: Pre-emergence herbicidal activity against POLCO; details: Fallopia convolvulus, 504 h, dosage 80 g/ha, scored visually after about 3 weeks vs untreated controls
In short: as §1

Abutilon theophrasti = assay: Post-emergence herbicidal activity against ABUTH; details: Abutilon theophrasti, 504 h, dosage 320 g/ha, rated visually after about 3 weeks
In short: as §2

Pharbitis purpurea [15] = assay: Post-emergence herbicidal activity against PHBPU; details: Ipomoea purpurea, 504 h, dosage 320 g/ha, rated visually after about 3 weeks
In short: as §2

Amaranthus retroflexus [16] = assay: Pre-emergence herbicidal activity against AMARE; details: Amaranthus retroflexus, 504 h, dosage 80 g/ha, scored visually after about 3 weeks vs untreated controls
In short: as §1

[17] = Pre-emergence herbicidal action against harmful plants (summary of the tables); details: 504 h, application rate of 0.08 kg of active substance or less per hectare, read-out: herbicidal action, pre-emergence treatment (very good activity)
Text: (§3) 1. Pre-emergence herbicidal action against harmful plants and crop plant compatibility Seeds of monocotyledonous and dicotyledonous weed plants and crop plants are placed in plastic or wood fiber pots and covered with soil. The compounds of the invention, formulated in the form of wettable powders (WP) or as emulsion concentrates (EC), are then applied onto the surface of the covering soil as aqueous suspension or emulsion with addition of 0.5% additive at a water application rate of 600 l/ha (converted). After the treatment, the pots are placed in a greenhouse and kept under good growth conditions for the trial plants. After about 3 weeks, the effect of the preparations is scored visually in comparison with untreated controls as percentages. For example, 100% activity=the plants have died, 0% activity=like control plants.
As shown by the results, compounds according to the invention such as, for example, the compounds No. I-02 and other compounds from the tables (I-05, I-10, I-11, I-12, I-13, I-14, I-15, I-16, I-17, I-18, I-19, I-20, I-21, I-22, I-23, I-24, I-25, I-26, I-27, I-28, I-29) have, when used for pre-emergence treatment, very good activity (80% to 100% herbicidal action) against harmful plants such as Abutilon theophrasti, Alopecurus myosuroides, Amaranthus retroflexus, Avena fatua, Cyperus esculentus, Echinochloa crus-galli, Hordeum murinum, Lolium rigidum, Pharbitis purpurea, Polygonum convolvulus, Setaria viridis, Stellaria media, Veronica persica and Viola tricolor at an application rate of 0.08 kg of active substance or less per hectare.

Alopecurus myosuroides [18] = assay: Post-emergence herbicidal activity against ALOMY; details: Alopecurus myosuroides, 504 h, dosage 320 g/ha, rated visually after about 3 weeks
In short: as §2

Viola tricolor [19] = assay: Post-emergence herbicidal activity against VIOTR; details: Viola tricolor, 504 h, dosage 320 g/ha, rated visually after about 3 weeks
In short: as §2

Hordeum murinum [20] = assay: Post-emergence herbicidal activity against HORMU; details: Hordeum murinum, 504 h, dosage 320 g/ha, rated visually after about 3 weeks
In short: as §2

Stellaria media [21] = assay: Pre-emergence herbicidal activity against STEME; details: Stellaria media, 504 h, dosage 80 g/ha, scored visually after about 3 weeks vs untreated controls
In short: as §1

Avena fatua [22] = assay: Pre-emergence herbicidal activity against AVEFA; details: Avena fatua, 504 h, dosage 80 g/ha, scored visually after about 3 weeks vs untreated controls, read-out: Pre-emergence herbicidal activity in % against AVEVA (AVEFA)
In short: as §1

Alopecurus myosuroides [23] = assay: Pre-emergence herbicidal activity against ALOMY; details: Alopecurus myosuroides, 504 h, dosage 80 g/ha, scored visually after about 3 weeks vs untreated controls
In short: as §1

Pharbitis purpurea [24] = assay: Pre-emergence herbicidal activity against PHBPU; details: dosage 80 g/ha, scored visually after about 3 weeks vs untreated controls
Text: as §3, with “control plants. [table]” for “control plants.”

Setaria viridis [25] = assay: Post-emergence herbicidal activity against SETVI; details: Setaria viridis, 504 h, dosage 320 g/ha, rated visually after about 3 weeks
In short: as §2

SMILES: C=C[C@]1(C(=O)N[C@@H]2CO[C@H](C(=O)NOCC)C2)CC(c2cc(F)cc(F)c2)=NO1 (mixture of isomers) [Example I-12, (5S)-3-(3,5-difluorophenyl)-N-[cis-5-(ethoxycarbamoyl)tetrahydrofuran-3-yl]-5-vinyl-4H-isoxazole-5-carboxamide]
- pest or weed control at 80 g/ha (Lolium rigidum [1]): 100%
- pest or weed control at 320 g/ha (Stellaria media [2]): 90%
- pest or weed control at 80 g/ha (Setaria viridis [3]): 100%
- pest or weed control at 80 g/ha (Veronica persica [4]): 100%
- pest or weed control at 80 g/ha (Viola tricolor [5]): 100%
- pest or weed control at 320 g/ha (Avena fatua [6]): 100%
- pest or weed control at 320 g/ha (Echinochloa crus-galli [7]): 90%
- pest or weed control at 320 g/ha (Amaranthus retroflexus [8]): 80%
- pest or weed control at 320 g/ha (Veronica persica [9]): 80%
- pest or weed control at 80 g/ha (Hordeum murinum [10]): 100%
- pest or weed control at 320 g/ha (Polygonum convolvulus [11]): 80%
- pest or weed control at 80 g/ha (Echinochloa crus-galli [12]): 100%
- pest or weed control at 320 g/ha (Lolium rigidum [13]): 90%
- pest or weed control at 80 g/ha (Polygonum convolvulus [14]): 100%
- pest or weed control at 320 g/ha (Abutilon theophrasti): 80%
- pest or weed control at 320 g/ha (Pharbitis purpurea [15]): 80%
- pest or weed control at 80 g/ha (Amaranthus retroflexus [16]): 100%
- pest or weed control at 80 g/ha [17]: 80 to 100%
- pest or weed control at 320 g/ha (Alopecurus myosuroides [18]): 90%
- pest or weed control at 320 g/ha (Viola tricolor [19]): 80%
- pest or weed control at 320 g/ha (Hordeum murinum [20]): 90%
- pest or weed control at 80 g/ha (Stellaria media [21]): 100%
- pest or weed control at 80 g/ha (Avena fatua [22]): 100%
- pest or weed control at 80 g/ha (Alopecurus myosuroides [23]): 100%
- Pre-emergence herbicidal activity in % against PHBPU (Pharbitis purpurea [24]): 90%

SMILES: C=C[C@]1(C(=O)N[C@@H]2CO[C@H](C(=O)NOC(C)C)C2)CC(c2cc(F)cc(F)c2)=NO1 (mixture of isomers) [Example I-13, (5S)-3-(3,5-difluorophenyl)-N-[cis-5-(isopropoxycarbamoyl)tetrahydrofuran-3-yl]-5-vinyl-4H-isoxazole-5-carboxamide]
- pest or weed control at 80 g/ha (Lolium rigidum [1]): 100%
- pest or weed control at 320 g/ha (Setaria viridis [25]): 90%
- pest or weed control at 320 g/ha (Stellaria media [2]): 90%
- pest or weed control at 80 g/ha (Setaria viridis [3]): 100%
- pest or weed control at 80 g/ha (Veronica persica [4]): 90%
- pest or weed control at 80 g/ha (Viola tricolor [5]): 100%
- pest or weed control at 320 g/ha (Avena fatua [6]): 90%
- pest or weed control at 320 g/ha (Echinochloa crus-galli [7]): 90%
- pest or weed control at 320 g/ha (Amaranthus retroflexus [8]): 80%
- pest or weed control at 320 g/ha (Veronica persica [9]): 80%
- pest or weed control at 80 g/ha (Hordeum murinum [10]): 100%
- pest or weed control at 320 g/ha (Polygonum convolvulus [11]): 80%
- pest or weed control at 80 g/ha (Echinochloa crus-galli [12]): 100%
- pest or weed control at 320 g/ha (Lolium rigidum [13]): 90%
- pest or weed control at 80 g/ha (Polygonum convolvulus [14]): 100%
- pest or weed control at 320 g/ha (Abutilon theophrasti): 80%
- pest or weed control at 320 g/ha (Pharbitis purpurea [15]): 80%
- pest or weed control at 80 g/ha (Amaranthus retroflexus [16]): 100%
- pest or weed control at 80 g/ha [17]: 80 to 100%
- pest or weed control at 320 g/ha (Alopecurus myosuroides [18]): 90%
- pest or weed control at 320 g/ha (Viola tricolor [19]): 80%
- pest or weed control at 320 g/ha (Hordeum murinum [20]): 90%
- pest or weed control at 80 g/ha (Stellaria media [21]): 100%
- pest or weed control at 80 g/ha (Avena fatua [22]): 100%
- pest or weed control at 80 g/ha (Alopecurus myosuroides [23]): 100%
- Pre-emergence herbicidal activity in % against PHBPU (Pharbitis purpurea [24]): 90%

SMILES: C=C[C@]1(C(=O)N[C@@H]2CO[C@H](C(=O)NS(=O)(=O)C(F)(F)F)C2)CC(c2cc(F)cc(F)c2)=NO1 (mixture of isomers) [Example I-14, (5S)-3-(3,5-difluorophenyl)-N-[cis-5-(trifluoromethylsulfonylcarbamoyl)tetrahydrofuran-3-yl]-5-vinyl-4H-isoxazole-5-carboxamide]
- pest or weed control at 80 g/ha (Lolium rigidum [1]): 100%
- pest or weed control at 320 g/ha (Stellaria media [2]): 90%
- pest or weed control at 80 g/ha (Setaria viridis [3]): 100%
- pest or weed control at 80 g/ha (Veronica persica [4]): 90%
- pest or weed control at 80 g/ha (Viola tricolor [5]): 100%
- pest or weed control at 320 g/ha (Avena fatua [6]): 80%
- pest or weed control at 320 g/ha (Echinochloa crus-galli [7]): 80%
- pest or weed control at 320 g/ha (Amaranthus retroflexus [8]): 80%
- pest or weed control at 320 g/ha (Veronica persica [9]): 90%
- pest or weed control at 80 g/ha (Hordeum murinum [10]): 90%
- pest or weed control at 320 g/ha (Polygonum convolvulus [11]): 80%
- pest or weed control at 80 g/ha (Echinochloa crus-galli [12]): 100%
- pest or weed control at 320 g/ha (Lolium rigidum [13]): 90%
- pest or weed control at 80 g/ha (Polygonum convolvulus [14]): 100%
- pest or weed control at 320 g/ha (Abutilon theophrasti): 90%
- pest or weed control at 320 g/ha (Pharbitis purpurea [15]): 80%
- pest or weed control at 80 g/ha (Amaranthus retroflexus [16]): 100%
- pest or weed control at 80 g/ha [17]: 80 to 100%
- pest or weed control at 320 g/ha (Alopecurus myosuroides [18]): 90%
- pest or weed control at 320 g/ha (Viola tricolor [19]): 100%
- pest or weed control at 320 g/ha (Hordeum murinum [20]): 80%
- pest or weed control at 80 g/ha (Stellaria media [21]): 90%
- pest or weed control at 80 g/ha (Avena fatua [22]): 90%
- pest or weed control at 80 g/ha (Alopecurus myosuroides [23]): 100%
- Pre-emergence herbicidal activity in % against PHBPU (Pharbitis purpurea [24]): 90%

Reference: patent US11613522B2, “Herbicidally active 3-phenylisoxazoline-5-carboxamides of tetrahydro- and dihydrofurancarboxamides” (BAYER AKTIENGESELLSCHAFT, priority 2017, dated 2023)
